Experimental data as given in ChEMBL document CHEMBL4619815, “Hitting a Moving Target: Simulation and Crystallography Study of ATAD2 Bromodomain Blockers” (ACS Med Chem Lett, 2020).

What was measured:
[1] = target: T1, ATPase family AAA domain-containing protein 2 (Homo sapiens, UniProt Q6PL18); test: Inhibition of recombinant human N-terminal GST-tagged ATAD2 bromodomain (981 to 1146 residues) expressed in Escherichia coli using biotinylated peptide SGRGK(Ac)GGKGLGKGGAKRHRKVLRDNGSGS as substrate incubated for 3 hrs by TR-FRET assay
T1 sequence (Q6PL18 whole entry): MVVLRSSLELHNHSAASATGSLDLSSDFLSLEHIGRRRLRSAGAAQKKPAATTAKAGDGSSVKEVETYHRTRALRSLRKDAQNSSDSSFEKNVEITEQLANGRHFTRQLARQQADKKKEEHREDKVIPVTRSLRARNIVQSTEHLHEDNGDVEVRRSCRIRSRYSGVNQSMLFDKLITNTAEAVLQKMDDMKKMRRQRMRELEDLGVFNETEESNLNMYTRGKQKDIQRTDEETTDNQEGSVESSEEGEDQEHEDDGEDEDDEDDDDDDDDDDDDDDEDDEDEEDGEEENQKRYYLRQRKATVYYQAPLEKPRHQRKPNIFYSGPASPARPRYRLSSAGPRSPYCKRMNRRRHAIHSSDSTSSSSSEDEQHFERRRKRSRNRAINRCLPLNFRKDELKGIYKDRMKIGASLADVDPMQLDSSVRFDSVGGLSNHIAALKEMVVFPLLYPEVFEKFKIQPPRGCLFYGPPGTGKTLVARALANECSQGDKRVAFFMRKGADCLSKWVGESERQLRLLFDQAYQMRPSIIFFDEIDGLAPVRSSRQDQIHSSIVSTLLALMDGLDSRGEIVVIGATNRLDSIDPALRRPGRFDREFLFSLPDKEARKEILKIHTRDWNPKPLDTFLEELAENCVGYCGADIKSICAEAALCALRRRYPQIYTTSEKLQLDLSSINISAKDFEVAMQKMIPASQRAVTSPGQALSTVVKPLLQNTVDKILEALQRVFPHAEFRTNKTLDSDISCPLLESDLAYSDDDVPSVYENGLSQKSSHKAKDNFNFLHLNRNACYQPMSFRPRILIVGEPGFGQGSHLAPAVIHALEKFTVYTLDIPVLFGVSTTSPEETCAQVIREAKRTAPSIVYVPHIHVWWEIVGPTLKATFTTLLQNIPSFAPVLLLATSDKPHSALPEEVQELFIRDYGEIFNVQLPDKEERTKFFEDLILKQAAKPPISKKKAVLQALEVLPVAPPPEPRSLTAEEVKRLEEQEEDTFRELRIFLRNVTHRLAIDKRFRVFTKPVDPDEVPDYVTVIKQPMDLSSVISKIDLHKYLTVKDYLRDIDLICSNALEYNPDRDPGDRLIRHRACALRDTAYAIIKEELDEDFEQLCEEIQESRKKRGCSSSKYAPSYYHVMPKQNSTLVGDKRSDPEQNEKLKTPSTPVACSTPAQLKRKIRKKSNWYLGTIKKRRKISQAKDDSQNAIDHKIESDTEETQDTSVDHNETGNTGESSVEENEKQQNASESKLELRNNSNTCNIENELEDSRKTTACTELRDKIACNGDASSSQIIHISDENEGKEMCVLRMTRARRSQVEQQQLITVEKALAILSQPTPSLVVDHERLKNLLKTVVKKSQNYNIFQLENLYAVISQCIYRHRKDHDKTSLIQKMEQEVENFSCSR

[2] = target: T1, ATPase family AAA domain-containing protein 2; test: Binding affinity to recombinant human N-terminal GST-tagged ATAD2 bromodomain (981 to 1146 residues) expressed in Escherichia coli at 10 degree C by isothermal titration calorimetry

Row | SMILES | IC50 [1] [µM] | Kd [2] [µM]
1 | COc1cccc(-c2sc(NC(=O)[C@@H](C)N)nc2C(C)=O)c1 | > 150 | 
2 | CC(=O)c1csc(NC(=O)[C@@H](C)NC(=N)N)n1 | 140 | 
3 | CC(=O)c1csc(NC(=O)[C@H]2CNCCN2CCC2CCC(F)(F)CC2)n1 | 15 | 25
4 | CC(=O)c1nc(NC(=O)[C@@H](C)N)sc1-c1cccc(O)c1 | > 150 | 
5 | C[C@@H](N)C(=O)Nc1nc2c(s1)CCCC2=O | > 150 | 
6 | CC(=O)c1csc(NC(=O)C(C)(C)N)n1 | > 150 | 
7 | CC(=O)c1csc(NC(=O)[C@@H](C)N)n1 | 336 | 

More lines, now with the values ahead:

Row | IC50 [1] [µM] | Kd [2] [µM] | SMILES
8 | > 150 |  | CC(=O)c1nc(NC(=O)[C@H]2CNCCN2)sc1-c1ccc(N2CCCC2=O)cc1
9 | > 150 |  | CC(=O)c1nc(NC(=O)C(C)(C)N)sc1-c1cncc(N)c1
10 | > 150 |  | CC(=O)c1nc(NC(=O)[C@@H](C)N)sc1-c1cccc(N)c1
11 | > 150 |  | CC(=O)c1nc(NC(=O)[C@H]2CNCCN2)sc1-c1cncc(N)c1
12 | > 150 |  | CC(=O)c1nc(NC(=O)[C@H]2CNCCN2)sc1-c1ccc(C(=O)N2CCOCC2)cc1
13 | > 150 |  | CC(=O)c1nc(NC(=O)[C@@H](C)N)sc1-c1cncc(N)c1
14 | > 150 |  | CC(=O)c1nc(NC(=O)[C@H]2CNCCN2CCC2CCC(F)(F)CC2)sc1-c1cncc(N)c1
15 | 80 |  | CC(=O)c1nc(NC(=O)C2(N)CCC2)sc1-c1cncc(N)c1
16 | > 150 |  | CC(=O)c1csc(NC(=O)[C@H]2CNCCN2)n1
17 | > 150 |  | CC(=O)c1nc(NC(=O)[C@@H](C)NC(=N)N)sc1-c1cncc(N)c1
18 | 95 |  | CC(=O)c1nc(NC(=O)[C@@H](C)N)sc1-c1cccnc1
